# Patent publication EP1721614A1, “Epirubicine hydrochloride for treating hepatitis C virus” (Institut National de la Santé et de la Recherche Médicale …, priority 2005, dated 2006)
# Counter-ions that a name gives are not always drawn.
# Assays:
# [1] = system: HCV subgenomic replicon stably transfected into Huh7 cell lines (clone BM4.5); experiment: anti-HCV activity in HCV subgenomic replicon system (Northern blot of HCV RNA, normalised to actin); assay type: cell-based, hepatitis C virus (HCV)
# Experimental: The potential antiviral (anti HCV) activity of epirubicin hydrochloride was tested in in vitro cell culture model using the HCV subgenomic replicon stably transfected into Huh7 cell lines (clone BM4.5) (Ju-Tao Gao et al., J Virol. 2001).
# Huh7 cells containing the HCV replicon were grown in cell culture medium in presence of varying concentration of epirubicin. The media and drug were changed everyday for 5 days. After 5 days of treatment the cells were lysed and total RNA extracted. The isolated RNA was then assayed for presence of HCV replication by Northern Blot analysis, using a HCV probe targeting the NS5B region of HCV.
# The cell lines were treated everyday with epirubicin from concentration of 20 nM to 2 nM for 5 days and at the end of treatment RNA from the treated cells were isolated. The total RNA was then probed with a HCV specific probe using Northern blot analysis to detect the HCV RNA. The resulting blot was then exposed to phosphorimager densitometry and the viral replication quantified.
# [2] = in vitro; conditions: human, huh7 cells
# [3] = cited from earlier work
compound,measurement,setting,value
"COc1cccc2c1C(=O)c1c(O)c3c(c(O)c1C2=O)C[C@@](O)(C(=O)CO)C[C@@H]3O[C@H]1C[C@H](N)[C@@H](O)[C@H](C)O1 [epirubicin hydrochloride, 7-O-(3'-amino-2',3',6'-trideoxy-α,β-L-arabinohexpyranosyl)-adriamycinone hydro-chloride]",selectivity index,[1]; CC50 in Huh7 cells versus IC50 in HCV replicon system,25
same,IC50,"[1]; Hepatitis C virus, Huh-7, 120 h, Huh7 replicon cells, 5 days of treatment, Figure 2, read-out: 50% inhibitory concentration (IC50), anti-HCV activity measured in HCV replicon system",3 to 5 nM
same,CC50,[2],> 100 nM
same,maximum cumulative dose,[3]; antitumor therapy in man,900 - 1000 mg/m^2
same,"""safe"" dose (total cumulative dose, Kaplan-Meier plot of cumulative probability of developing congestive heart failure)",[3]; man,100 - 150 mg/m^2
